Columns and labels:
Type in all cases: cell-based
[1] = test system: human hair follicle dermal papilla cells; assay: β-catenin movement from cytoplasm to nucleus, western blotting of nuclear extract; settings: peptide 0.5 uM, 5 uM or 50 uM, 1 day, serum-free medium; western blot; FIG. 1
Experimental: The promoting effect of the peptide consisting of the amino acid sequence of SEQ ID NO: 1 on the proliferation of hair follicle cells was to be confirmed. In detail, human hair follicle dermal papilla cells were seeded in a 96-well plate at a density of 4×10^5 cells/well, and cultured for 16 hours. The culture medium was replaced with a serum-free medium, and the peptide was added thereto at a concentration of 0.5 uM, 5 uM, or 50 uM, and the cells were cultured for 1 day. Here, as a positive control group, 5 uM of Minoxidil which is used as a hair loss treatment was treated. The cells were harvested and nuclei thereof were isolated by using a nuclear protein extraction kit (Merck, USA). Then, western blotting was performed with respect to β-catenin which is a factor related to proliferation of the dermal papilla cells by using β-catenin antibodies (Santacruz biotechnology, USA).

[2] = test system: human dermal papilla cells; assay: PCR expression of Lef-1, Cyclin D1 and c-Myc (activity of dermal papilla cells); settings: peptide 0.5 uM, 5 uM or 50 uM, 1 day, serum-free medium, FIG. 2
Experimental: (§1) The promoting effect of the peptide consisting of the amino acid sequence of SEQ ID NO: 1 on the activity of hair follicle cells was to be confirmed. In detail, human dermal papilla cells were seeded in a 96-well plate at a density of 4×10^5 cells/well, and cultured for 16 hours. The culture medium was replaced with a serum-free medium, and the peptide was added thereto at a concentration of 0.5 uM, 5 uM, or 50 uM, and the cells were cultured for 1 day. Here, as a positive control group, 5 uM of Minoxidil was treated. After the cells were harvested, RNA was extracted therefrom and used for synthesis of cDNA by using a cDNA synthesis kit and PCR pre-mix (Intron, Korea).

[3] = test system: human dermal papilla cells; assay: PCR expression of growth factors VEGF, bFGF, KGF and HGF; settings: peptide 0.5 uM, 5 uM or 50 uM, 1 day, serum-free medium, FIG. 3
Experimental: as §1, with “activity of a growth factor” for “activity”, “of cNDA” for “of cDNA”, “PCR pre-mix.” for “PCR pre-mix (Intron, Korea).”

[4] = test system: human dermal papilla cells; assay: Western blotting of apoptosis-related proteins Bax, Cleaved PARP-1, Cleaved Caspase-3, Bcl2; settings: peptide 0.5 uM, 5 uM or 50 uM, 1 day, serum-free medium; western blot; FIG. 4
Experimental: The inhibitory effect of the peptide consisting of the amino acid sequence of SEQ ID NO: 1 on the control of expression of apoptosis-related proteins of hair follicle cells was to be confirmed. In detail, human dermal papilla cells were seeded in a 96-well plate at a density of 4×10^5 cells/well, and cultured for 16 hours. The culture medium was replaced with a serum-free medium, and the peptide was added thereto at a concentration of 0.5 uM, 5 uM, or 50 uM, and the cells were cultured for 1 day. Here, as a positive control group, 5 uM of Minoxidil was treated. Cell lysates were prepared by harvesting the cell, and then, western blotting was performed with respect to Bax, Cleaved PARP-1, Cleaved Caspase-3, or Bcl2 by using Bax antibodies, Cleaved PARP-1 antibodies, Cleaved Caspase-3 antibodies, or Bcl2 antibodies (Santacruz biotechnology, USA), respectively.

[5] = test system: human dermal papilla cells; assay: PCR expression of DKK-1 under DHT stimulation; settings: DHT 10 ug/ml as stimulator, peptide 0.5 uM, 5 uM or 50 uM, 1 day, serum-free medium, FIG. 5
Experimental: The inhibitory effect of the peptide consisting of the amino acid sequence of SEQ ID NO: 1 on the expression of DKK-1, which is a hair loss-related factor, in hair follicle cells was to be confirmed. In detail, human dermal papilla cells were seeded in a 96-well plate at a density of 4×10^5 cells/well, and cultured for 16 hours. After the culture medium was replaced with a serum-free medium, dihydrotestosterone (DHT) as a stimulator was added thereto at a concentration of 10 ug/ml while peptide was added thereto at a concentration of 0.5 uM, 5 uM, or 50 uM. Then, the cells were cultured for 1 day. As a positive control, 50 uM of Finasteride which is a drug inhibiting male hormones was treated. Here, DHT is known as a hair loss hormone that increases the expression of DKK-1, which is a hair loss-inducible factor, by activating an androgen receptor. After the cells were harvested, RNA was extracted therefrom and used for synthesis of cNDA by using a cDNA synthesis kit and PCR pre-mix.

[6] = test system: human hair follicle germinal matrix cells; assay: PCR expression of MSX2 (activity of germinal matrix cells); settings: peptide 0.5 uM, 5 uM or 50 uM, 1 day, serum-free medium, FIG. 6
Experimental: as §1, with “of germinal matrix” for “of hair follicle”, “human hair follicle” for “human”, “of EGF” for “of Minoxidil”, “of cNDA” for “of cDNA”, “PCR pre-mix.” for “PCR pre-mix (Intron, Korea).”

[7] = test system: human hair follicle outer root sheath cells; assay: PCR expression of HA3-II, Keratin 5, Keratin 14 and Keratin 19 (activity of outer root sheath cells); settings: peptide 0.5 uM, 5 uM or 50 uM, 1 day, serum-free medium, FIG. 7
Experimental: as §1, with “follicle outer root sheath” for “follicle”, “human hair follicle outer root sheath” for “human dermal papilla”, “of EGF” for “of Minoxidil”, “of cNDA” for “of cDNA”, “PCR pre-mix. Then, PCR was performed by using the primer of GAPDH shown in Table 2 and primers of HA3-II, Keratin 5, Keratin 14, and Keratin […] shown in Table 6.” for “PCR pre-mix (Intron, Korea).”

TKVFPQD [SEQ ID NO: 1]
movement of β-catenin from the cytoplasm to the nucleus [1]: increased | expression of Cyclin D1 [2]: increased | expression of Lef-1 [2]: increased | expression of c-Myc [2]: increased | expression of HGF [3]: increased | expression of KGF [3]: increased | expression of VEGF [3]: increased | expression of bFGF [3]: increased | expression of Bax [4]: decreased | expression of Bcl2 (anti-apoptosis-related protein) [4]: increased | expression of Cleaved Caspase-3 [4]: decreased | expression of Cleaved PARP-1 [4]: decreased | expression pathway of DKK-1 [5]: inhibit | expression of MSX2 [6]: increase | expression of HA3-II [7]: increase | expression of Keratin 5 [7]: increase | expression of Keratin 14 [7]: increase | expression of Keratin 19 [7]: increase
